# Reference: patent US20100227841A1, “Patient populations and treatment methods” (Harbor BioSciencs, Inc., priority 2008, published 2010)
# Key:
# [1] = test system: female NOD mice; experiment: Spontaneous autoimmune diabetes in non-obese diabetic (NOD) mouse model; assay type: in vivo; details: for Insulitis Score/Islet (H&E) / β-Cell Score/Islet (Insulin): scale of 0 to 3
# Text: Treatment of spontaneous autoimmune diabetes in non-obese diabetic (NOD) mouse model. The NOD model is used as an animal model for human type 1 diabetes. The NOD mouse strain spontaneously develops autoimmune (type 1) diabetes by a process that has similarities to human type 1 diabetes mellitus, e.g., immune-mediated selective destruction of the pancreatic islet 13-cells that produce insulin (M. A. Atkinson and N. K. Maclaren, New England J. Medicine, 331:1428-1436 1994). There is a higher incidence of diabetes (i.e., hyperglycemia, glucosuria, and hypoinsulinemia) in female vs. male NOD mice (80-90% vs. 10-20%, respectively). Disease incidence in this animal model is first observed at approximately 12 to 15 weeks of age with maximum incidence usually peaking 5 to 6 weeks later.
# Methods. An oral formulation containing 17α-ethynylandrost-5-ene-3β,7β,17β-triol in 30% w/v β-cyclodextrin sulfobutyl ether sodium salt (Captisol®; CyDex, Inc., Overland Park, Kans.) was used. Six-week old female NOD mice (approximately 20-25 grams) were purchased from The Jackson Laboratories (Bar Harbor, Me.) and housed in a vivarium under pathogen-free conditions. The animals were acclimated for at least one week prior to initiation of oral dosing with 17α-ethynylandrost-5-ene-3β,7β,17β-triol. Animals were randomized into 5 per cage upon receipt and cages were subsequently randomized into dosing groups.
# Female NOD mice were treated once daily with vehicle, 17α-ethynylandrost-5-ene-3β,7β,17β-triol (20 or 80 mg/kg in 100 μL, p.o.), or dexamethasone (0.25 mg/kg, 100 μL, i.p.) from 15 to 25 weeks of age (i.e., before the first incidence of diabetes; at the University of Catania), from 13 to 19 weeks of age (2 days after the first incidence of diabetes), or from 12 to 26 weeks of age (9 days after the first incidence of diabetes). Blood glucose was monitored using glucometers (ENCORE Glucometer, Bayer Corp., Elkhart, Ind.) at weekly intervals, beginning at 10 weeks of age. Mice with blood glucose levels 200 mg/dL on two consecutive occasions were considered diabetic. The percentage of animals with diabetes over the course of the experiment was monitored.
# Histological assessment of insulitis and functional 13-cell content was assessed at the time of disease diagnosis or at the end of the 26-week study (i.e., disease-free mice). Pancreata (after CO2 euthanasia) were immediately isolated and placed in 10% buffered formalin at room temperature overnight, and then embedded in paraffin. After de-paraffinizing, pancreas samples were rehydrated and 5 μm sections were prepared and fixed on glass slides. Some sections were stained with hematoxylin and eosin (H&E) while others were stained with anti-insulin antibody as follows; prepared sections were immersed in Tris-Buffered Saline (TBS: 10 mM Tris buffer, pH 7.4, 0.15 M NaCl) containing 1% of bovine serum albumin (BSA) and 5% normal goat serum for 2 h at room temperature followed by incubation with 2 μg/mL rat anti-insulin IgG2a monoclonal antibody (MAB1417; R&D Systems, Minneapolis, Minn.) in TBS/1% BSA overnight at 4° C. in a humidified chamber. After washing with TBS/0.5 Tween-20, sections were covered with biotinylated anti-rat IgG secondary antibody (BD biosciences, 1:1,000) for 1 h at room temperature, followed by washing with TBS/Tween-20 and incubation with streptavidin-horseradish peroxidase for 30 min. Sections were then incubated with chromogen substrate, DAB (BD Biosciences), for 5 min and counterstained with hematoxylin. The degree of insulitis (leukocyte infiltration per islet; H&E) and functional 13-cell content per islet (insulin production) was scored using a scale of 0 to 3 in which 0=none, 1=few, 2=moderate, 3=high content of inflammatory cells or functional β-cells. Pancreata that were scored were obtained from a randomly-selected portion of mice from each cohort and scores were reported as the mean±SEM for each cohort.
# [2] = test system: RAW264.7 macrophage cells; experiment: Macrophage chemotaxis assay with 3T3-L1 adipocyte conditioned medium; assay type: cell-based; details: p<0.05
# Description: The macrophage chemotaxis assay was conducted with differentiated 3T3-L1 adipocytes (day +11 post differentiation) incubated for 24 hours with compounds (10 ng/mL TNFα with or without 100 nM 17α-ethynylandrost-5-ene-3β,7β,17β-triol) or vehicle in DMEM with 0.2% FFA- and endotoxin-free BSA. Conditioned medium (CM) was collected and kept frozen in single-use aliquots. For the chemotaxis assay, 600 μl/well of adipocyte CM was aliquoted into 24-well tissue culture plates. 2×10^5 RAW264.7 macrophage cells resuspended in DMEM containing 0.2% BSA were plated in the upper transwell chamber ([…], 24-transwell format; Corning, Lowell, Mass.). After 3 hours of migration, the RAW264.7 cells were fixed in formalin and stained with DAPI. Cells in the upper chamber that had not migrated were removed. Cells found on the filter facing the lower chamber were counted as cells having performed chemotaxis and quantified with the Simple PCI imaging software (Compix Inc., Cranberry Township, Pa.).
# [3] = test system: CCR2 / MCP1; experiment: Effects of treatment on CCR2 expression and circulating MCP1; assay type: in vivo
# Text: The treatment methods described herein may involve treating patient subsets having elevated MCP1 (monocyte chemoattractant protein 1, or sometimes referred to as CCL2, which is CC chemokine receptor 2 ligand). CC chemokine receptor 2 (CCR2) is the receptor for MCP1. […] These effects are consistent with biological responses that correspond to reduced progression and/or at least partial reversal of cardiovascular plaque accumulation. That provides a basis for treating, e.g., slowing the progression, of arteriosclerosis and atherosclerosis. Such treatments would be effective in patients having a dyslipidemia such as hypercholesterolemia and/or hypertriglyceridemia with or without also having an arteriosclerosis condition such as atherosclerosis. Such patients will preferably have BMI and fasting plasma insulin levels as described in the embodiments described below (e.g., in embodiment 1, 9, 10, 17 or 19), examples or original claims, e.g., a BMI of ≧28 and insulin of ≧4 μU/mL. Any of these patients may also have hyperglycemia or overt diabetes. Patients with elevated MCP1 are also treatable for preventing or reducing the severity of cardiovascular disease, including myocardial infarction.
# [4] = TNFα-treated adipocyte CM, adipocytes pretreated
compound,measurement,setting,value
"C#C[C@]1(O)CC[C@H]2[C@@H]3[C@@H](O)C=C4C[C@@H](O)CC[C@]4(C)[C@H]3CC[C@@]21C [17α-ethynylandrost-5-ene-3β,7β,17β-triol]",Disease Incidence,[1]; 20 mg/kg p.o. once daily,0.78 ± 0.15
same,No. Islets/pancreas (H&E),[1]; 20 mg/kg p.o. once daily,2.4 ± 0.9
same,Insulitis Score/Islet (H&E),[1]; 20 mg/kg p.o. once daily,2.5 ± 0.3
same,β-Cell Score/Islet (Insulin),[1]; 20 mg/kg p.o. once daily,1.5 ± 0.4
same,effect on disease incidence,"[1]; 20 mg/kg, differs from 80 mg/kg, p=0.009 Fischer's Exact test",ineffective
same,Disease Incidence,[1]; 80 mg/kg p.o. once daily,0.17 ± 0.17
same,No. Islets/pancreas (H&E),[1]; 80 mg/kg p.o. once daily,8.0 ± 3.1
same,Insulitis Score/Islet (H&E),[1]; 80 mg/kg p.o. once daily,0.8 ± 0.4
same,β-Cell Score/Islet (Insulin),[1]; 80 mg/kg p.o. once daily,2.6 ± 0.4
same,progressive increase in disease incidence,[1]; 80 mg/kg single daily oral doses started 2 days or 9 days after first incidence of diabetes,suppressed
same,"disease incidence relative to vehicle, meta-analysis across all studies","[1]; 80 mg/kg, p=0.007 Fischer's Exact test",significant decrease
same,mean±SEM body weights,"[1]; Week 25, 20 mg/kg",24.6 ± 0.8 g
same,mean±SEM body weights,"[1]; Week 25, 80 mg/kg",24.7 ± 0.3 g
same,first incidence of diabetes,"[1]; week 19, once daily treatment from 15 to 25 weeks of age (vehicle 25%)",8%
same,mean±SEM body weights,"[1]; week 31, end of study",24.3 ± 0.6 g
same,maximum disease incidence during treatment,"[1]; weeks 23 through 25 (vehicle 66%), p<0.05 Chi-Squared test",25%
same,macrophage secretion of CCL5/RANTES,[2]; [4],significantly decreased
same,macrophage secretion of MCP-1/CCL2,[2]; [4],significantly decreased
same,reduction of macrophage migration stimulated by CM from TNFα-treated adipocytes,[2]; adipocytes pretreated with 100 nM,~30%
same,expression levels of CCR2,[3]; in vivo,decrease
same,MCP1 in circulation,"[3]; typically protein levels in serum, e.g. ELISA",trend to decrease
